A word on the IC50: it is the midpoint of a concentration-inhibition curve.

SMILES strings stand for the structures. Values after ≈ are worked out from the molar mass of the structure shown.

This note sets out measurements from US4473554A, “Bestatin-related compounds as immunopotentiator” (Zaidan Hojin Biseibutsu Kagaku Kenkyu Kai, priority 1982, dated 1984).

Data set [1] deals with D.T.H. response in tumor-bearing (Sarcoma 180) mice immunized with SRBC. Kind of data set: D.T.H. footpad test in Sarcoma 180 tumor-bearing mice immunized with SRBC, Example 23. The class given is in vivo, mouse. The conditions noted are these: Sarcoma 180-bearing CDF1 mice. The procedure: This Example describes the tests for evaluation of the immunopotentiating activity of the new compound of this invention. Thus, the effect of the new compound of cell-mediated immunity was tested according to a known technique of Delayed Type Hypersensitivity (D.T.H.) (see P. H. Lagrange et al. "J. Exp. Med." Vol. 139, 1529-1539 (1974)) using tumor-bearing mice which had been immunized with sheep red blood cell (SRBC) as antigen as inoculated into the footpad of the mice.
Thus, a suspension of 10^8 sheep red blood cells in 0.05 ml of physiological saline was subcutaneously injected at the time of immunization into the right hind footpad of each CDF1 -mouse under test (female, 8 weeks-aged, 6 mice in each group) to which 10^6 cells of the tumor cell, Sarcoma 180 had been inoculated intraperitoneally.
On the same day as the day when the immunization with SRBC was effected, as well as on the subsequent, consecutive four days, the mouse under test were then treated by intraperitoneal administration of 0.05 mg/kg, 0.5 mg/kg or 5 mg/kg per day of the test compound as the solution which was prepared by dissolving the test compound in physiological saline and then filtering the solution by a micropore filter (pore diameter: 0.22 micrometers). Two days after the immunization with SRBC, 10^8 SRBC were subcutaneously injected into the left hind footpad of each test mouse for elicitation of the D.T.H. responde. 24 Hours after the elicitating injection, the increased thickness of the left hind footpad was measured with calipers to estimate the degree of swelling in the footpad. The swelling degree is expressed in term of the values calculated by the equation: [formula] The degree of swelling serves to evaluate the degree of cell-mediated immunity involved. For comparison, a suspension of bestatin dispersed in water was tested in the same way as above.

The target in the next data set is T1, aminopeptidase B (Rattus norvegicus, UniProt O09175).
T1 sequence (O09175 1-650): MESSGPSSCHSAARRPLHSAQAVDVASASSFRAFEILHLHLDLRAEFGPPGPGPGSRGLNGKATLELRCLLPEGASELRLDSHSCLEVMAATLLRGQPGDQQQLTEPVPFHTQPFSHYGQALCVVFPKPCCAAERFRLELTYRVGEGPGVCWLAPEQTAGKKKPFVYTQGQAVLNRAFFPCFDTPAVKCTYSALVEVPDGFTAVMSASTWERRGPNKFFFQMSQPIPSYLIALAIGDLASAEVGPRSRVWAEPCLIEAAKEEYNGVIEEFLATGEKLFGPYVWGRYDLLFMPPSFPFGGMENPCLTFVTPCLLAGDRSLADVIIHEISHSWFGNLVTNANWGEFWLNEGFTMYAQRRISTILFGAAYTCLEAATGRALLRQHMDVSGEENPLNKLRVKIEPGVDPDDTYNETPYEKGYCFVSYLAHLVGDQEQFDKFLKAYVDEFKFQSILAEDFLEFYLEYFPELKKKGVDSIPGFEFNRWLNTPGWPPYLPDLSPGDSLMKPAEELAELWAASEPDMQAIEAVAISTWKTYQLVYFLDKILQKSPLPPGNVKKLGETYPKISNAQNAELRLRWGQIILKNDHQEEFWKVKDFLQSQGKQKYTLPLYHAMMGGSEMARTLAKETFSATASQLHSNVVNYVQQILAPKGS
Description: aminopeptidase B-inhibiting activity (modified Hopsu method, arginine β-naphthylamide substrate). The class given is biochemical. The note with it: 37° C., pH 7.0, 30 minutes. As for the experimental part:
The aminopeptidase B-inhibiting activity was determined according to a modification of the method of V. K. Hopsu et al. described in the "Archives of Biochemistry and Biophysics" Vol. 114, 557 (1966). Thus, a mixture of 0.8 ml of 0.1 mM of (S)-arginine β-naphthylamide and 1.0 ml of 0.1M Tris-hydrochloride buffer (pH 7.0) was admixed with 0.7 ml of 0.1M Tris-hydrochloride buffer (pH 7.0) containing the test compound and then heated at 37° C. for 3 minutes. […] After the reaction at 37° C. for 30 minutes, the reaction solution was admixed with 0.6 ml of 0.1M acetate buffer (pH 4.2) containing 1.0 mg/ml of diazonium salt of o-aminoazotoluene (Garnet GBC) and 1.0% of a surfactant "Tween" 20 (a registered trademark) to stop the enzymatic reaction and then allowed to stand at ambient temperature for 15 minutes. After this, absorbance (a) at 525 nm of the reaction solution was measured by spectrophotometer. For the control, the above procedure was repeated without the test compound and the adsorbence (b) was measured. Percentages for inhibition to aminopeptidase B were calculated according to the equation: [formula] Inhibition percentages at various concentrations of the test compound were measured, and from the values of inhibition percentages measured 50% Inhibition Concentration (IC50) was evaluated.

Data set [2] has as its system D.T.H. response in mice immunized with SRBC as antigen. Kind of data set: D.T.H. footpad test in mice immunized with SRBC, Examples 3-6 (dosages per mouse). Type of data set: in vivo. The note with it: for Degree of swelling: control = 100. The procedure: The effect of (2S,3R)-AHPA on cell-mediated immunity was tested in the same way in Example 2, namely according to the D.T.H. technique using mice immunized with sheep red blood cell as antigen. Thus, a suspension of 10^8 sheep red blood cells in 0.05 ml of physiological saline were subcutaneously injected at the time of immunization into the right hind footpad of each CDF1 -mouse under test (female, 8 weeks-aged, 5 mice in each group) to establish D.T.H. […] The degree of swelling was evaluated. By way of comparison, bestatin was tested in the same way as above. […] The effect of (2S,3R)-AHPA on the D.T.H. response was estimated in the same manner as in the above procedure (A) of Example 3 by orally administering 1 mcg/mouse, 0.1 mcg/mouse or 0.01 mcg/mouse of (2S,3R)-AHPA to each mouse under test. […] The effect of the mode of administering (2S,3R)-AHPA on the D.T.H. response was estimated in the same manner as in the procedure (A) of Example 3, except that the test compound (as aqueous solution) was injected intraperitoneally in stead of being given orally.

Data set [3] has as its system D.T.H. response in mice immunized with sheep red blood cell (SRBC). Description: Delayed Type Hypersensitivity (D.T.H.) footpad test in mice immunized with SRBC, Example 2. The class given is in vivo, mouse. The conditions noted are these: CDF1 mice, control = 100. The procedure:
This Example describes the tests for evaluation of the immunopotentiating activity of the new compound of this invention.
A suspension of 10^8 sheep red blood cells in 0.05 ml of physiological saline was subcutaneously injected at the time of immunization into the right hind footpad of each CDF1 -mouse under test (female, 8 weeks-aged, 5 mice in each group) to establish D.T.H. Simultaneously to the immunization, […] prepared by dissolving the test compound in physiological saline and then filtering the solution by a micropore filter (pore diameter: 0.22 micrometers). Four days later, 10^8 SRBC were subcutaneously injected into the left […] footpad of each test mouse for elicitation of the D.T.H. response. 24 Hours after the elicitating injection, the increased thickness of the left hind footpad was measured with calipers to estimate the degree of swelling in the footpad. The swelling degree is expressed in term of the values calculated by the equation: [formula] The degree of swelling serves to evaluate the degree of cell-mediated immunity involved. For comparison, a suspension of bestatin dispersed in water was tested in the same way as above.

In another data set the test system is ICR-strain mice. Kind of data set: acute toxicity, intraperitoneal, ICR-strain mice. Type of data set: in vivo, mouse. The note with it: dosage of 100 mg/kg. An excerpt:
In order to estimate the acute toxicity of the compound of the formula (VIII) or (IIId), some of the test compound was intraperitoneally given to ICR-strain mice (in groups each consisting of 6 mice, male, 5 weeks-aged, average body weight 20 g.), when all the tested mice tolerated intraperitoneal administration of (2S,3R)-APHA; (2S)-2-N-[(2'S,3'R)-3'-amino-2'-hydroxy-4'-phenyl-butanoyl]amino-4-methyl- pentanol; (2S)-2-N-[(2'S,3'R)-3'-amino-2'-hydroxy-4'-phenylbutanoyl-(S)-leucyl]amino-4-methyl-pentanol; (2S,3R)-3-amino-2-hydroxy-4-phenylbutanoyl-(S)-leucyl-(S)-leucine; (2S,3R)-3-amino-2-hydroxy-4-phenyl-butanoyl-(S)-leucyl-(S)-arginine; (2S,3R)-3-amino-2-hydroxy-4-phenylbutanoyl-(S)-leucyl-(S)-asparagine; (2R,3R)-3-amino-2-hydroxy-4-phenylbutanoyl-(S)-leucyl-(R)-asparagine; and (2S,3R)-3-amino-2-hydroxy-4-phenylbutanoyl-(S)-leucyl-(R)-arginine at a dosage of 100 mg/kg.

In the case of `CC(C)C[C@H](NC(=O)[C@@H](O)[C@H](N)Cc1ccccc1)C(=O)O` [Bestatin, (2S, 3R)-3-amino-2-hydroxy-4-phenylbutanoyl-(S)-leucine], the solubility in water result in “solubility in water” is “sparingly soluble in water”. For the same compound, the Degree of swelling in data set [1] (intraperitoneal 5 mg/kg/day) was found to be 130%; in data set [2] (Table 3, oral 0.1 mcg/mouse), 118%; in data set [2] (Table 3, oral 1 mcg/mouse), 130%; in data set [2] (Table 3, oral 10 mcg/mouse), 152%; in data set [2] (Table 4, oral 1 mcg/mouse), 133%; in data set [2] (Table 7, oral 1 mcg/mouse), 133%. For the same compound, the Degree of swelling is listed as 121% in data set [2] (Table 8, oral 1 mcg/mouse); 120-130% in data set [3] (oral 0.05 mg/kg at immunization); 140-150% in data set [3] (oral 0.5 mg/kg at immunization). For the same compound, on aminopeptidase B, the concentration for half-maximal inhibition (IC50) is 0.03 µg/mL (≈ 0.0973 µM). Besides, the “Increase in thickness of footpad (± S.D.)” value in data set [2] (Table 3, oral 0.1 mcg/mouse) is 9.3 ± 2.70 × 0.1 mm; in data set [2] (Table 3, oral 1 mcg/mouse) it was 10.3 ± 0.96 × 0.1 mm; in data set [2] (Table 3, oral 10 mcg/mouse), 12.0 ± 1.25 × 0.1 mm; in data set [2] (Table 4, oral 1 mcg/mouse), 10.8 ± 1.08 × 0.1 mm; in data set [2] (Table 7, oral 1 mcg/mouse) it was 11.6 ± 0.91 × 0.1 mm. The “Degree of swelling, Intraperitoneal injection” value in data set [2] (Table 5, intraperitoneal 1 mcg/mouse) turned out to be 128%. The “Degree of swelling, Oral administration” value in data set [2] (Table 5, oral 1 mcg/mouse) was found to be 133%. The “Increase in thickness of footpad (+ S.D.)” value in data set [2] (Table 8, oral 1 mcg/mouse) is 10.3 ± 1.36 × 0.1 mm.
Turning to `CC(C)C[C@H](NC(=O)[C@@H](O)[C@H](N)Cc1ccccc1)C(=O)N[C@@H](CCCNC(=N)N)C(=O)O` [Compound No. 5, (2S,3R)-3-amino-2-hydroxy-4-phenyl-butanoyl-(S)-leucyl-(S)-arginine], the solubility in water entry in “solubility in water” is on record as “soluble in water”. Also, the Degree of swelling in data set [1] (intraperitoneal 5 mg/kg/day) is listed as 147%; in data set [3] (oral 0.5 mg/kg at immunization) it was 135%. For the same compound, at aminopeptidase B, the IC50 came to 0.11 µg/mL (≈ 0.237 µM).
As to `CC(C)C[C@H](NC(=O)[C@H](CC(C)C)NC(=O)[C@@H](O)[C@H](N)Cc1ccccc1)C(=O)O` [Compound No. 6, (2S,3R)-3-amino-2-hydroxy-4-phenylbutanoyl-(S)-leucyl-(S)-leucine], the Degree of swelling is given as 152% in data set [1] (intraperitoneal 0.5 mg/kg/day) and 120% in data set [3] (oral 0.5 mg/kg at immunization). On aminopeptidase B, this compound returned an IC50 of 0.20 µg/mL (≈ 0.474 µM).
As for `CC(C)C[C@H](NC(=O)[C@@H](O)[C@H](N)Cc1ccccc1)C(=O)N[C@H](CCCNC(=N)N)C(=O)O` [Compound No. 10], the Degree of swelling in data set [1] (intraperitoneal 0.5 mg/kg/day) stood at 155%; in data set [3] (oral 0.5 mg/kg at immunization) it was 134%. The “acute toxicity: tolerance of intraperitoneal administration” value in the data set with ICR-strain mice is recorded as “tolerated”. Also, the IC50 on aminopeptidase B came to 0.39 µg/mL (≈ 0.839 µM).
Turning to `CC(C)C[C@H](NC(=O)[C@@H](O)[C@H](N)Cc1ccccc1)C(=O)N[C@@H](CC(N)=O)C(=O)O` [Compound No. 11, (2S,3R)-3-amino-2-hydroxy-4-phenylbutanoyl-(S)-leucyl-(S)-asparagine], the Degree of swelling is reported as 155% in data set [1] (intraperitoneal 0.05 mg/kg/day) and 128% in data set [3] (oral 0.5 mg/kg at immunization). For the same compound, the IC50 against aminopeptidase B turned out to be 22.4 µg/mL (≈ 53 µM).
In the case of `CC(C)C[C@H](NC(=O)[C@@H](O)[C@H](N)Cc1ccccc1)C(=O)N[C@H](CC(N)=O)C(=O)O` [Compound No. 12, (2S,3R)-3-amino-2-hydroxy-4-phenylbutanoyl-(S)-leucyl-(R)-asparagine], the figures for the Degree of swelling in data set [1] (intraperitoneal 0.5 mg/kg/day) and in data set [3] (oral 0.5 mg/kg at immunization) were 157% and 133%, respectively. In the data set on ICR-strain mice, the “acute toxicity: tolerance of intraperitoneal administration” value is listed as “tolerated”. The IC50 against aminopeptidase B turned out to be 4.7 µg/mL (≈ 11.1 µM).
